Reference: patent publication US12583848B2, “Isoxazole-3-carboxamide derivatives and their use for treatment of diseases caused by virus infection” (Collaborations Pharmaceuticals, Inc., priority 2019, dated 2026)
Values after ≈ are worked out from the molar mass of the structure shown. Values joined by “and” are separate entries in the source; they are usually repeats but may differ in a detail not shown here. Equal entries are not always repeated. Where two headings read alike, the source gives them in different places.

Columns and labels:
[1] = system: viruses resistant to pleconaril; experiment: Inhibition of replication of a broad spectrum of EV in vitro; format: cell-based; settings: read-out: IC50 values for viruses resistant to pleconaril
[2] = Pharmacokinetic study in mice; format: in vivo, white BALB/c male mice
Method: The pharmacokinetics of the compound 8 has been studied in white BALB/c male mice. 22 animals with average body weight of 20 g were selected for the study. Before the experiment the animals were kept on standard vivarium ration with dry pelleted feed. All the test animals had free access to water but were deprived of food for 1 hour before administration of the compound. This regimen was continued for another hour after the administration. […] The animals were euthanized by decapitation for blood sampling. […] Blood was collected in heparinized tubes and centrifuged at 3500 RPM. Plasma was separated from formed elements and immediately frozen at -20° C. in freezer. This storage continued before transferring of plasma for analysis. Serum from 6 untreated animals was used as control and for equipment calibration with compound. Mice brain was immediately frozen at -120° C. Plasma separation: […] Sample preparation: A mixture of 50 μL of plasma and 150 μL of MeCN by intensive shaking (Vortex) for 30 sec. Centrifugation 14000 g for 4 min. […] See also FIG. 1.

[3] = system: Enterovirus D68 (EV-D68 MP30 PP); format: in vivo, AG129 mice; settings: for weight loss (percentage of initial body weight) following infection: 100 mg/kg/d PO, EV-D68 infected AG129 mice, days 1-5
Solubility = format: physicochemical; settings: pH 7.4, aqueous buffer
Method: (§1) In vitro ADME studies were performed on compound 8.

[4] = Microsomal stability, mouse liver microsomes; format: in vitro ADME
Method: as §1

rhinovirus A2 (RV-A2) = experiment: organism not typed; format: cell-based; settings: HeLa, 72 h, read-out: IC50 against Rhinoviruses (RV) RV-A2
mouse-adapted EV D68 = experiment: microbe, parasite or virus in culture; format: cell-based; parameters: SI50: unit not given beside the values
[5] = system: CVB3 97927-I1207K (pleconaril-resistant variant); format: cell-based, coxsackievirus B3
[6] = mouse, in vivo, po
HeLa cells = settings: human
[7] = system: Enterovirus 68 (strain US/KY/14-18953); experiment: microbe, parasite or virus in culture; format: cell-based; parameters: SI50: unit not given beside the values
Protein binding, mouse = format: in vitro ADME
Method: as §1

[8] = system: CVB3 97927-I1207M (pleconaril-resistant variant); format: cell-based, coxsackievirus B3
[9] = Cell permeability (Caco-2); format: in vitro ADME; settings: human, Caco-2
Method: (§2) In vitro ADME studies were performed on compound 8. Cell permeability (Caco-2) results were as follows: Apical (A) to (Basolateral) B 8.8×10^−4 cm/s; […]

Caco-2 = experiment: Cell permeability (Caco-2); format: in vitro ADME; settings: concluded from Caco-2 efflux
Method: as §2

PXR = PXR (Homo sapiens, UniProt O75469); experiment: biochemical
Sequence of PXR (O75469 111-434 limits assumed): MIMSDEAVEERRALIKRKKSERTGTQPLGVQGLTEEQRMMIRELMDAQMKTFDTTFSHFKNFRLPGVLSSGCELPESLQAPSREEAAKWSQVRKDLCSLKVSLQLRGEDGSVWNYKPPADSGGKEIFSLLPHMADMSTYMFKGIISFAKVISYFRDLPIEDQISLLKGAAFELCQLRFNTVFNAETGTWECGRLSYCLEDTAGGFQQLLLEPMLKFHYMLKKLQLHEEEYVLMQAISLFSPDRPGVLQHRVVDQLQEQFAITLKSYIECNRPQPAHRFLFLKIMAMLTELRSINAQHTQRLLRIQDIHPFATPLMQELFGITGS

rhinovirus B5 (RV-B5) = experiment: organism not typed; format: cell-based; settings: HeLa cells, CPE inhibition, 72 hours; n.a. = not active; read-out: IC50 against Rhinoviruses (RV) RV-B5
[10] = Microsomal stability, human liver microsomes; format: in vitro ADME
Method: as §1

[11] = system: CVB3 97927-I1207T (pleconaril-resistant variant); format: cell-based, coxsackievirus B3
[12] = system: influenza A virus, subtype H1N1 (strain California/07/2009); experiment: microbe, parasite or virus in culture; format: cell-based; parameters: SI50: unit not given beside the values
[13] = system: enterovirus 71 (strain Tainan/4643/98); experiment: microbe, parasite or virus in culture; format: cell-based; parameters: SI50: unit not given beside the values
rhinovirus B14 (RV-B14) = experiment: organism not typed; format: cell-based; settings: HeLa, 72 h, read-out: IC50 against Rhinoviruses (RV) RV-B14
Protein binding, human = format: in vitro ADME
Method: as §1

CYP3A4 = settings: for CYP3A4 induction, % of control: control = rifampicin; for CYP3A4 induction (fold): cryopreserved hepatocytes, midazolam substrate
cytochrome P450 = experiment: Effect on cytochrome P450 enzyme activity; format: in vitro ADME
[14] = system: polio virus-1 (strain Mahoney); experiment: organism not typed; format: cell-based; parameters: SI50: unit not given beside the values
[15] = mice, 100 mg/kg intragastric, plasma
[16] = read-out: Protein binding, bound (converted)

In the case of `Cc1cc(-c2noc(C(F)(F)F)n2)ccc1OCCCc1cc(C(=O)N(C)C)no1` [Compound 8, N,N-dimethyl-5-(3-{2-methyl-4-[5-(trifluoromethyl)-1,2,4-oxadiazol-3-yl]phenoxy}propyl)isoxazole-3-carboxamide], the IC50 [1] is reported as 40 to 640 nM, the “Concentration in mice plasma” value ([2]; 0.50 hours, individual mice, 100 mg/kg intragastric, 100 mg/kg) is reported as 963.29 ng/mL and 2031.52 ng/mL and 1979.28 ng/mL and 2114.06 ng/mL and 1464.12 ng/mL and the “Concentration in mice plasma” value ([2]; 1 hour, individual mice, 100 mg/kg intragastric, 100 mg/kg) is reported as 660.65 ng/mL and 1138.34 ng/mL. For the same compound, the “Concentration in mice plasma” value ([2]; 2 hours, individual mice, 100 mg/kg intragastric, 100 mg/kg) was 667.90 ng/mL and 379.89 ng/mL and 461.99 ng/mL, the “Concentration in mice plasma” value ([2]; 3 hours, individual mice, 100 mg/kg intragastric, 100 mg/kg) was 344.86 ng/mL and 107.10 ng/mL and 403.55 ng/mL and the “Concentration in mice plasma” value ([2]; 5 hours, individual mice, 100 mg/kg intragastric, 100 mg/kg) was 228.15 ng/mL and 74.82 ng/mL and 147.00 ng/mL. The “Concentration in mice plasma” value ([2]; 7 hours, individual mice, 100 mg/kg intragastric, 100 mg/kg) was 90.82 ng/mL and 44.49 ng/mL and 13.49 ng/mL and 45.70 ng/mL, the concentration at 0.5 h ([2]; male, BALB/c, mouse, plasma, oral, 100 mg/kg, 0.50 hours, 100 mg/kg intragastric) was 1710 ng/mL and the concentration at 1 h ([2]; male, BALB/c, mouse, plasma, oral, 100 mg/kg, 1 hour, 100 mg/kg intragastric, read-out: Concentration in mice plasma, Average) was 966 ng/mL. For the same compound, the concentration at 1 h ([2]; male, BALB/c, mouse, plasma, oral, 100 mg/kg, 1 hour, individual mice, 100 mg/kg intragastric, read-out: Concentration in mice plasma) was 1100 ng/mL, the concentration at 2 h ([2]; male, BALB/c, mouse, plasma, oral, 100 mg/kg, 2 hours, 100 mg/kg intragastric, read-out: Concentration in mice plasma, Average) was 536 ng/mL and the concentration at 2 h ([2]; male, BALB/c, mouse, plasma, oral, 100 mg/kg, 2 hours, individual mice, 100 mg/kg intragastric, read-out: Concentration in mice plasma) was 634 ng/mL. The concentration at 3 h ([2]; male, BALB/c, mouse, plasma, oral, 100 mg/kg, 3 hours, 100 mg/kg intragastric) was 285 ng/mL, the concentration at 5 h ([2]; male, BALB/c, mouse, plasma, oral, 100 mg/kg, 5 hours, 100 mg/kg intragastric) was 124 ng/mL and the concentration at 7 h ([2]; male, BALB/c, mouse, plasma, oral, 100 mg/kg, 7 hours, 100 mg/kg intragastric) was 49.6 ng/mL. For the same compound, the AUC ([2]; male, BALB/c, mouse, po, mice, 100 mg/kg intragastric, plasma, read-out: AUC0-oo) was 3020 ng·h/mL, the oral bioavailability ([2]; mice) was “very high oral bioavailability” and the CL [2, 15] was 0.66 L/h. It also gave a Cmax. [2, 15] of 1710.5 ± 489.2 ng/mL, an MRT [2, 15] of 129 min and a T1/2 [2, 15] of 94.8 min. The Tmax. [2, 15] was 30 min, the Vd [2, 15] was 1.52 L and the kel [2, 15] was 0.4373 h⁻¹. For the same compound, the “weight loss (percentage of initial body weight) following infection” value [3] was “protected mice from weight loss”, the “weight loss (percentage of initial body weight) following infection” value ([3]; listed as compound 8) was “significant protection from weight loss” and the blood virus ([3]; day 5 post-infection) was “No virus was detected”. The solubility (Solubility) was 0.11 µM (≈ 0.0467 µg/mL), the “microsomal stability (verdict)” value [4] was “unstable” and the half-life ([4]; read-out: half-life (t1/2)) was 19.6 min. It also gave a microsomal CLint ([4]; read-out: intrinsic clearance (CLint)) of 70.6 µL/min/mg, an IC50 (rhinovirus A2 (RV-A2)) of 410 nM and an SI50 (mouse-adapted EV D68) of 173. The EC50 (mouse-adapted EV D68; Enterovirus D, EVD68) was 23 nM, the IC50 [5] was 3670 nM and the “Maximum tolerated dose (MTD)” value [6] was “at least 100 milligrams per kilogram body weight per day”. For the same compound, the CC50 (HeLa cells) was 13400 nM, the SI50 [7] was >520 and the EC50 ([7]; Enterovirus D) was 18 nM. For the same compound, the “Protein binding, stability” value (Protein binding, mouse) was 88.1%, the fraction unbound (Protein binding, mouse; [16]) was 0.002 and the IC50 [8] was 4 nM. For the same compound, the efflux ratio [9] was 3.5, the P-gp substrate (Caco-2) was “likely P-gp substrate” and the IC50 (PXR) was > 100000 nM. It also gave an IC50 (rhinovirus B5 (RV-B5)) of 2260 nM, a half-life [10] of 55.3 min and a microsomal CLint [10] of 25.1 µL/min/mg. It also gave an IC50 [11] of 10 nM, a CC50 (in vitro) of 52000 nM and an SI50 [12] of 4.3. For the same compound, the EC90 ([12]; Influenza A virus, H1N1) was 4400 nM, the SI50 [13] was 24 and the EC50 ([13]; Enterovirus A, Vero 76) was 940 nM. For the same compound, the IC50 (rhinovirus B14 (RV-B14)) was 70 nM, the “Protein binding, stability” value (Protein binding, human) was 93.9% and the fraction unbound (Protein binding, human; [16]) was 0.003. The “CYP3A4 induction, % of control” value (CYP3A4; 1 μM) was 3 % of control, the “CYP3A4 induction (fold)” value (CYP3A4; 1 μM) was 1.2 × and the “CYP3A4 induction, % of control” value (CYP3A4; 10 μM) was 7 % of control. The “CYP3A4 induction (fold)” value (CYP3A4; 10 μM) was 1.4 ×, the “effect on cytochrome P450 enzyme activity” value (cytochrome P450) was “without affecting cytochrome P450 enzyme activity” and the SI50 [14] was 11. For the same compound, the EC50 ([14]; Vero 76) was 320 nM.
